Tests used:
Assay type in all cases: cell-based
human TLR7 = biological target: T1, human TLR7 (Homo sapiens, UniProt Q9NYK1); test: TLR7 inhibition reporter assay (HEK-Blue cells, SEAP reporter); details: HEK-Blue cells overexpressing human TLR7; stimulated with gardiquimod 7.5 μM; 22 hour incubation; SEAP readout
T1 sequence (Q9NYK1 27-1049): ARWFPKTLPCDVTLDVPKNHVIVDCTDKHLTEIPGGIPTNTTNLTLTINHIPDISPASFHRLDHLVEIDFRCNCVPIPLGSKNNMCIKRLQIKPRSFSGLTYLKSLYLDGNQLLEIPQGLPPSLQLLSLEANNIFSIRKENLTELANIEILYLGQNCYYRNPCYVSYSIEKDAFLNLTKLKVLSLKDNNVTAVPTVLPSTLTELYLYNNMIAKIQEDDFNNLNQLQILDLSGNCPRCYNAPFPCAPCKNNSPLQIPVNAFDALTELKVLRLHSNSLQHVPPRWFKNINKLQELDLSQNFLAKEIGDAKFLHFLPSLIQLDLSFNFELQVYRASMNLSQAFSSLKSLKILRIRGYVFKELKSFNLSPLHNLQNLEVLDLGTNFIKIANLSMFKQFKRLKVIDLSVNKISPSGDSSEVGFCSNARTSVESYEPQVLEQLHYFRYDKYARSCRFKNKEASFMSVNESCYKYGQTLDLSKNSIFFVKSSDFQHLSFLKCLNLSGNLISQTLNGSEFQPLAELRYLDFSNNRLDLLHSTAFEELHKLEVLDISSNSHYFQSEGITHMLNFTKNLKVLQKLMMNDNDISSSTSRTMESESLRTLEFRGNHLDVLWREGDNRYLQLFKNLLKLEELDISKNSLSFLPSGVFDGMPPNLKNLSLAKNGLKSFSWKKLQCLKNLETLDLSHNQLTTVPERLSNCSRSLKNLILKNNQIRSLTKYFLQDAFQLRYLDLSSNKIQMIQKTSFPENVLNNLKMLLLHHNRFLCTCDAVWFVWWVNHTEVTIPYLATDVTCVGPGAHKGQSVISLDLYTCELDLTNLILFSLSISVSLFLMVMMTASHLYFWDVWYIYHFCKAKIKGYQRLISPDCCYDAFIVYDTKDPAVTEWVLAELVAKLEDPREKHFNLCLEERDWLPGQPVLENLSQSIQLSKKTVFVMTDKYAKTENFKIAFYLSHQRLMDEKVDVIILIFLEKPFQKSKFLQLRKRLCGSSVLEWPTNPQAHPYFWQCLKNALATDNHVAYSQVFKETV
In short: (§1)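 HEK-Blue cells with NF-κB/AP-1-driven SEAP pre-treated 30 min with compound (0.05 nM–50 μM), then stimulated with gardiquimod 7.5 μM (TLR7), R848 15.9 μM (TLR8) or ODN2006 5 nM (TLR9). SEAP detected after 22 h at 37 °C; percent inhibition relative to agonist-plus-DMSO and known-inhibitor wells.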

human TLR8 = biological target: T2, human TLR8 (Homo sapiens, UniProt Q9NR97); test: TLR8 inhibition reporter assay (HEK-Blue cells, SEAP reporter); details: HEK-Blue cells overexpressing human TLR8; stimulated with R848 15.9 μM; 22 hour incubation; SEAP readout
T2 sequence (Q9NR97 27-1041): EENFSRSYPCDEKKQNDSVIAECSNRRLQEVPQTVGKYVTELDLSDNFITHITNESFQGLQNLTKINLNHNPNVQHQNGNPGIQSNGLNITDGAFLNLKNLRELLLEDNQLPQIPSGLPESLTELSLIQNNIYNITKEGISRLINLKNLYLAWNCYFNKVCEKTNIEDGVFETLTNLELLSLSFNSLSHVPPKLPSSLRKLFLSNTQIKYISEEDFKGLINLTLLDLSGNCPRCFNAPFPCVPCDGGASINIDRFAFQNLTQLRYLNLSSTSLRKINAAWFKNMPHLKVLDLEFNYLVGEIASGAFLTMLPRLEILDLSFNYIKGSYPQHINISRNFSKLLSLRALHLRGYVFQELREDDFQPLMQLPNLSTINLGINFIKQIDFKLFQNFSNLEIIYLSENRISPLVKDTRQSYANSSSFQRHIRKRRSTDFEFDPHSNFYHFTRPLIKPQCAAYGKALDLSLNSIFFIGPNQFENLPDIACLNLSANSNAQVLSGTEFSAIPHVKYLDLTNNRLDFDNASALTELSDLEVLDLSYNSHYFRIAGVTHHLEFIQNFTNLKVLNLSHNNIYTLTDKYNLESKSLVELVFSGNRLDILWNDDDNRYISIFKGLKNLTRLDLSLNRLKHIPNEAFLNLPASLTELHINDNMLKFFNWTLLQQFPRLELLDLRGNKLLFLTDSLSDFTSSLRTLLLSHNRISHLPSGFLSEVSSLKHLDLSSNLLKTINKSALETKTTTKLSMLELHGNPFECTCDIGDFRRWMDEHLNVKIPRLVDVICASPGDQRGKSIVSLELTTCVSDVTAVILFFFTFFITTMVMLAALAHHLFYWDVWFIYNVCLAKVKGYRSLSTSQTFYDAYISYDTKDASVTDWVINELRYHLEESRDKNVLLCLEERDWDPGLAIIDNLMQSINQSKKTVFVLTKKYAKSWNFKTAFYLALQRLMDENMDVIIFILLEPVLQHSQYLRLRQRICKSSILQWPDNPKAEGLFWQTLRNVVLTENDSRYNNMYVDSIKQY
In short: as §1

human TLR9 = biological target: T3, human TLR9 (Homo sapiens, UniProt Q9NR96); test: TLR9 inhibition reporter assay (HEK-Blue cells, SEAP reporter); details: HEK-Blue cells overexpressing human TLR9; stimulated with ODN2006 5 nM; 22 hour incubation; SEAP readout
T3 sequence (Q9NR96 26-1032): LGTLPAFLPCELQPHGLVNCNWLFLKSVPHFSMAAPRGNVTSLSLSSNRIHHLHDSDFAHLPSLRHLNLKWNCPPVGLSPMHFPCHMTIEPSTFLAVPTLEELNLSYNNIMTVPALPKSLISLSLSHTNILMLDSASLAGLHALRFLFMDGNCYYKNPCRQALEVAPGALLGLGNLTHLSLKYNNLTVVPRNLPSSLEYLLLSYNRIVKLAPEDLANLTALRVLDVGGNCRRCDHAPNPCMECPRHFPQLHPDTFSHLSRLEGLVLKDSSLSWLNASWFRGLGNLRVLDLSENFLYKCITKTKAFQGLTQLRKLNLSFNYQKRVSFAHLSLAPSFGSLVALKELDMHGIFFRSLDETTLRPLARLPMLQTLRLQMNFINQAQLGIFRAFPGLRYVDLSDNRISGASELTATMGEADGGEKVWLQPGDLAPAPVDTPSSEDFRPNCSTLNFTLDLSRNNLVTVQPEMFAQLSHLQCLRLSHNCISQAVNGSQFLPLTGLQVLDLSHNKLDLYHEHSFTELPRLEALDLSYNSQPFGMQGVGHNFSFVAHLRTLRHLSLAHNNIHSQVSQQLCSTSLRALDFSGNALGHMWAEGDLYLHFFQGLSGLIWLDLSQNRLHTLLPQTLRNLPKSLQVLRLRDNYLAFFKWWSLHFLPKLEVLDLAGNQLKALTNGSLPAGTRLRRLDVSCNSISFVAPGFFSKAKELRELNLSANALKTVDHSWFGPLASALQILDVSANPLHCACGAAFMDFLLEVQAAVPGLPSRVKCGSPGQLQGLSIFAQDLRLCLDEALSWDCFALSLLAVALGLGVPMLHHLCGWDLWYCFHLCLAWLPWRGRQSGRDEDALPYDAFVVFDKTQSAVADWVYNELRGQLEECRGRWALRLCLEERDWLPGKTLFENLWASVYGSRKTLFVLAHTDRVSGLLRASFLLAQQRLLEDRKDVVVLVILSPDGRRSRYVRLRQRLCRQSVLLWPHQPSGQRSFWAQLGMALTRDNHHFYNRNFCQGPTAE
In short: as §1

## Cc1cc(-c2ccc(N3CCN(CC(C)C)CC3)cc2)cn2cc(-c3ccc(S(C)(=O)=O)cc3)nc12 [Example 99, 6-(4-(4-isobutylpiperazin-1-yl)phenyl)-8-methyl-2-(4-(methylsulfonyl)phenyl) imidazo[1,2-a]pyridine]
Human TLR7
  IC50: > 50 µM
Human TLR8
  IC50: > 50 µM
Human TLR9
  IC50: 0.624 µM

## Cc1cc(C2CCN(C3CC4CCC(C3)N4C(C)C)CC2)cn2cc(-c3ccc(S(C)(=O)=O)cc3)nc12 (single isomer, unassigned) [Example 63, 6-(1-(8-isopropyl-8-azabicyclo[3.2.1]octan-3-yl)piperidin-4-yl)-8-methyl-2-(4-(methylsulfonyl)phenyl)imidazo[1,2-a]pyridine]
Human TLR7
  IC50: 5.8 µM
Human TLR8
  IC50: 9.5 µM
Human TLR9
  IC50: 0.097 µM

## COc1ccc(-c2cn3c(n2)CCC(C2CCN(C4CC5(C4)CN(C(C)C)C5)CC2)C3)cc1OC (single isomer, unassigned) [Example 46, 2-(3,4-dimethoxyphenyl)-6-(1-(2-isopropyl-2-azaspiro[3.3]heptan-6-yl)piperidin-4-yl)-5,6,7,8-tetrahydroimidazo[1,2-a]pyridine]
Human TLR7
  IC50: 30 µM
Human TLR8
  IC50: > 50 µM
Human TLR9
  IC50: 0.272 µM
